According to patent publication US9023857B2, “Substituted 6-(2-aminobenzylamino)purine derivatives, their use as medicaments and preparations containing these compounds” (Univerzita Palackeho V Olomouci, priority 2009, dated 2015):

Legend:
[1] = system: tumor suppressor protein p53; conditions: Olomoucine II compared with Roscovitine; cited from earlier work
[2] = target: CDK9 (Homo sapiens, UniProt P50750); conditions: Olomoucine II compared with Roscovitine; cited from earlier work
[3] = system: HSV-1; assay: Plaque number reduction assay, HSV-1 on HFFF; type: cell-based, Herpes simplex virus type 1 strain 17
[4] = system: C-terminal domain (CTD) of RNA polymerase II, serine 2 and serine 5; assay: Immunoblotting: phosphorylation of the C-terminal domain of RNA polymerase II; type: cell-based; conditions: 12 hours treatment, cell lines with incorporated SV40, all tested cell lines (FIG. 12A)
Experimental: Cell were detached with rubber policeman and washed three times with ice-cold PBS and lysed in buffer (50 mM Tris, pH 7.4, 250 mM NaCl, 5 mM EDTA, 50 mM NaF, 1 mM Na3VO4, 1% Nonidet P40) containing mixture of protease and phosphatase inhibitors (Sigma-Aldrich St Louis, Mo., USA). 20 μg of total proteins were separated by SDS-polyacrylamide gel electrophoresis (SDS-PAGE) on 8% or 10% gels and transferred onto nitrocellulose membranes. Membranes were blocked in 5% milk and 0.1% Tween 20 in PBS and probed overnight with specific monoclonal antibodies or rabbit polyclonal sera. Primary antibodies specific for RNA polymerase II (all from Santa Cruz Biotechnology, California, USA) included: (i) N-20 used at 1 μg/ml, (ii) H14, specific for form phosphorylated at phosphoserine 5, used at 6 μg/ml and (iii) H5, specific for form phosphorylated at phosphoserine 2 used at 4 μg/ml. Additional primary mAb used in immunblots included (iv) anti-p53 (DO-1, in house) used at 1 μg/ml, (v) anti-p21^WAF1 (118, in house), used at 1 μg/ml), (vi) anti-actin (A-2066, Sigma-Aldrich St Louis, Mo., USA) used at 1 μg/ml, (vii) anti-T-antigen (419, in house), used at 1 μg/ml. All primary antibodies were diluted in PBS containing 5% powdered milk; 0.1% Tween 20. Peroxidase conjugated rabbit anti-mouse immunoglobulin or porcine anti-rabbit immunoglobulin antisera (DAKO, Glostrup, Denmark) were used as the secondary antibodies and visualised with ECL reagents (Amersham-Pharmacia, Little Chalfont, UK).
Modulation of expression from the HIV promoter by CDKI treatment may be mediated by transcriptional regulation. At the C-terminus of the largest subunit of RNA Pol II is an important regulatory domain referred to as CTD (C-terminal domain). We therefore investigated the effect of CDKIs on CTD serine 2 and serine 5 phosphorylation. […] Although the functions of CDKs and RNA polymerase II were suppressed, the expression from incorporated viral promoters was enhanced.
Cell were detached with rubber policeman and washed three times with ice-cold PBS and lysed in buffer (50 mM Tris, pH 7.4, 250 mM NaCl, 5 mM EDTA, 50 mM NaF, 1 mM Na3VO4, 1% Nonidet P40) containing mixture of protease and phosphatase inhibitors (Sigma-Aldrich St Louis, Mo., USA). 20 μg of total proteins were separated by SDS-polyacrylamide gel electrophoresis (SDS-PAGE) on 8% or 10% gels and transferred onto nitrocellulose membranes. Membranes were blocked in 5% milk and 0.1% Tween 20 in PBS and probed overnight with specific monoclonal antibodies or rabbit polyclonal sera. […]

[5] = system: HIV promoter integrated into cellular DNA (H1299-HIV cells); assay: β-galactosidase expression from pHIV-lacZ incorporated to cellular genome (H1299-HIV); conditions: HIV promoter integrated into cellular DNA (FIG. 11)
[6] = system: HAd4; assay: Plaque number reduction assay, HAd4 on A549; type: cell-based, Human adenovirus type 4 (HAdV-4) strain RI-6
[7] = system: HIV promoter (pHIV-lacZ, extrachromosomal) in H1299-TAT cells; assay: β-galactosidase expression from pHIV-lacZ transiently transfected to H1299-TAT; conditions: H1299-TAT cells (FIG. 11)
[8] = system: HCMV; assay: Plaque number reduction assay, HCMV on HFFF; type: cell-based, Human cytomegalovirus strain Toledo
[9] = system: CMV promoter (plasmid pCMV-lacZ); assay: β-galactosidase expression from transiently transfected pCMV-lacZ in MCF-7 and T47D; conditions: transiently transfected MCF-7 and T47D (FIG. 9)
[10] = system: IV; type: cell-based, Influenza Virus H1N1 strain A/PR/8/34; conditions: MDCK cells
[11] = system: HSV-2; assay: Plaque number reduction assay, HSV-2 on HFFF; type: cell-based, HSV-2 strain HG52
[12] = system: SV40 large T-antigen in COS-1 cells; assay: Expression from SV40 promoter incorporated in the cellular genome (COS-1 cells); type: cell-based; conditions: COS-1 cells (FIG. 10)
Experimental: Cell were detached with rubber policeman and washed three times with ice-cold PBS and lysed in buffer (50 mM Tris, pH 7.4, 250 mM NaCl, 5 mM EDTA, 50 mM NaF, 1 mM Na3VO4, 1% Nonidet P40) containing mixture of protease and phosphatase inhibitors (Sigma-Aldrich St Louis, Mo., USA). 20 μg of total proteins were separated by SDS-polyacrylamide gel electrophoresis (SDS-PAGE) on 8% or 10% gels and transferred onto nitrocellulose membranes. Membranes were blocked in 5% milk and 0.1% Tween 20 in PBS and probed overnight with specific monoclonal antibodies or rabbit polyclonal sera. Primary antibodies specific for RNA polymerase II (all from Santa Cruz Biotechnology, California, USA) included: (i) N-20 used at […] (ii) H14, specific for form phosphorylated at phosphoserine 5, used at 6 μg/ml and (iii) H5, specific for form phosphorylated at phosphoserine 2 used at 4 μg/ml. Additional primary mAb used in immunblots included (iv) anti-p53 (D0-1, in house, […]) used at 1 μg/ml, (v) anti-p21^WAF1 (118, in house), used at 1 μg/ml), (vi) anti-actin (A-2066, Sigma-Aldrich St Louis, Mo., USA) used at 1 μg/ml, (vii) anti-T-antigen (419, in house, Lane), used at 1 μg/ml. All primary antibodies were diluted in PBS containing 5% powdered milk; 0.1% Tween 20. […]

[13] = system: SV40 large T-antigen; type: cell-based; conditions: SV40-infected MCF-7 and T47D; 20 μM Roscovitine or 8 μM 105 (FIG. 8)
[14] = system: MV; assay: MV syncytium reduction assay in B95a cells; type: cell-based, Measles virus wildtype strain WTFb
[15] = system: VV; type: cell-based, Vaccinia virus strain WR; conditions: Vaccinia virus on HFFF

Sequence of CDK9 (P50750 whole entry, species assumed): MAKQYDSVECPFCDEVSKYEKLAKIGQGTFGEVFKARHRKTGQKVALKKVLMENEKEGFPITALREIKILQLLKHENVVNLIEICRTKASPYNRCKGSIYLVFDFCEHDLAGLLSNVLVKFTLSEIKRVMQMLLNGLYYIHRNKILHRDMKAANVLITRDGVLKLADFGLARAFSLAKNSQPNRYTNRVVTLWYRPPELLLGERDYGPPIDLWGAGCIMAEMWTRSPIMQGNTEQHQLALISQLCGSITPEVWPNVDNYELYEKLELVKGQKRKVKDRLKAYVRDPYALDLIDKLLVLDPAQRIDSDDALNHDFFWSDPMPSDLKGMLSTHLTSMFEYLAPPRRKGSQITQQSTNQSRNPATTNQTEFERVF
Sequence of CDK9 (O60563 whole entry partner, species assumed): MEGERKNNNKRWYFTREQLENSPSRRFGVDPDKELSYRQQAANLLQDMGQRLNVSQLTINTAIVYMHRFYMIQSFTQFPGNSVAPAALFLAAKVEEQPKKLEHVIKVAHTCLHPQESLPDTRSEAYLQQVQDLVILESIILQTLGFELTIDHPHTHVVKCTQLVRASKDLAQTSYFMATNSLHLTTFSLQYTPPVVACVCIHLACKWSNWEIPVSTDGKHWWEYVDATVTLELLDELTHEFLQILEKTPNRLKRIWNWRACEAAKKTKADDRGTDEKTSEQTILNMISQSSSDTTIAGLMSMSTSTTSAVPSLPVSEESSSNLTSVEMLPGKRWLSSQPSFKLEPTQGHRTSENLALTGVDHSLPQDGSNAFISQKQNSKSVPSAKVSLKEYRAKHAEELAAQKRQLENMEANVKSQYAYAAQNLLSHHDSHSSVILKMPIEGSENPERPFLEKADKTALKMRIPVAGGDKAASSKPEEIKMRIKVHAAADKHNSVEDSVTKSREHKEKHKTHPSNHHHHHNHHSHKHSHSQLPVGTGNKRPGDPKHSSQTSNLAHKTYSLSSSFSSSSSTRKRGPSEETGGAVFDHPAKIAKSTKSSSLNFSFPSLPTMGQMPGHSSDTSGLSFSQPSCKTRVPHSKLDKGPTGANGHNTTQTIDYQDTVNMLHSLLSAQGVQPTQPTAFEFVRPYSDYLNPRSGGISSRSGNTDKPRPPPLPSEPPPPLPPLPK

Compound | lower concentrations inducing nuclear accumulation and transcriptional activation of p53 [1] | higher inhibitory activity for CDK9 [2] [fold] | inhibition of virus replication (in words) [3] | phosphorylation of both serine 2 and serine 5 of RNA polymerase II CTD [4] | increase of reporter readout [5] [times] | inhibition of virus replication (in words) [6] | expression from pHIV-lacZ (extrachromosomal location), β-galactosidase readout [7] | inhibition of virus replication (in words) [8] | expression from CMV promoter (β-galactosidase activity) [9] | inhibition of virus replication (in words) [10] | inhibition of virus replication (in words) [11] | large T-antigen expression [12] | level of large T-antigen [13] | inhibition of virus replication (in words) [14] | inhibition of virus replication (in words) [15]
CC[C@H](CO)Nc1nc(NCc2ccccc2O)c2ncn(C(C)C)c2n1 [Olomoucine II] | 2-3 fold | 10 | – | – | – | – | – | – | – | – | – | – | – | – | –
CC[C@H](CO)Nc1nc(NCc2ccccc2)c2ncn(C(C)C)c2n1 [Roscovitine, 2-(R)-(1-Ethyl-2-hydroxyethylamino)-6-benzylamino-9-isopropylpurine, reference compound] | – | – | did not inhibit | inhibited | 2.5 | inhibited HAd4 replication | inhibited | equally sensitive | inhibited expression | ineffective | did not inhibit | stimulated large T-antigen expression | reduced level | ineffective | no overt effect
